Experimental data: ChEMBL document CHEMBL4673230, “Total Synthesis of Natural Lembehyne C and Investigation of Its Cytotoxic Properties” (J Nat Prod, 2020)
Active and inactive are the calls of the source. The rule behind the calls is not given here.

Tests used:
Jurkat [1] = assay: Induction of ROS generation in human Jurkat cells assessed as apoptotic cells at 200 nM after 4 hrs by MitoSox Red/annexin V-CF488A staining based flow cytometric analysis (reference value: 3.18%); format: functional
Jurkat [2] = assay: Induction of ROS generation in human Jurkat cells assessed as mitochondria damaged cells at 200 nM after 4 hrs by MitoSox Red/annexin V-CF488A staining based flow cytometric analysis (reference value: 0%); format: functional
Jurkat [3] = assay: Induction of ROS generation in human Jurkat cells assessed as living undamaged cells at 200 nM after 2 hrs by MitoSox Red/annexin V-CF488A staining based flow cytometric analysis (reference value: 95.44%); format: functional
Jurkat [4] = assay: Induction of ROS generation in human Jurkat cells assessed as apoptotic cells with clear mitochondrial damages at 200 nM after 4 hrs by MitoSox Red/annexin V-CF488A staining based flow cytometric analysis (reference value: 0.39%); format: functional
Jurkat [5] = assay: Induction of apoptosis in human Jurkat cells assessed as early apoptotic cells at 200 nM after 24 hrs by Annexin V/7-AAD staining.based flow cytometric analysis relative to control; format: functional
Jurkat [6] = assay: Induction of cell cycle arrest in human Jurkat cells assessed as accumulation at sub-G1 phase at 2 uM after 24 hrs by Guava Cell Cycle reagent based flow cytometric analysis relative to control; format: functional
Jurkat [7] = assay: Induction of DNA damage in human Jurkat cells assessed as increase in H2Ax phosphorylation at 2 uM after 2 hrs by Alexa Fluor555 staining based flow cytometric analysis; format: functional, cell-based
Jurkat [8] = assay: Induction of apoptosis in human Jurkat cells assessed as late apoptotic cells after 24 hrs by Annexin V/7-AAD staining.based flow cytometric analysis; format: functional, cell-based; settings: dose 50-400 nM
Jurkat [9] = assay: Induction of mitochondrial membrane potential loss in human Jurkat cells assessed as alife cells at 200 nM after 4 hrs by MitoSense Red/7-AAD. flow cytometric analysis (reference value: 98.47%); format: functional
Jurkat [10] = assay: Induction of mitochondrial membrane potential loss in human Jurkat cells assessed as stressed cells at 200 nM after 4 hrs by MitoSense Red/7-AAD. flow cytometric analysis (reference value: 1.12%); format: functional
Jurkat [11] = assay: Induction of mitochondrial membrane potential loss in human Jurkat cells at 200 nM after 4 hrs by MitoSense Red/7-AAD. flow cytometric analysis; format: functional, cell-based
Jurkat [12] = assay: Induction of mitochondrial membrane potential loss in human Jurkat cells assessed as death cells at 200 nM after 4 hrs by MitoSense Red/7-AAD. flow cytometric analysis (reference value: 0.22%); format: functional
Jurkat [13] = assay: Induction of DNA damage in human Jurkat cells assessed as increase in H2Ax phosphorylation at 0.2 uM after 2 hrs by Alexa Fluor555 staining based flow cytometric analysis; format: functional, cell-based

SMILES: CC[C@@]1(O)C(=O)OCc2c1cc1n(c2=O)Cc2cc3ccccc3nc2-1 [CAMPTOTHECIN]
- Activity (Jurkat [1]): 68.24%
- Activity (Jurkat [2]): 0%
- Activity (Jurkat [3]): 29.83%
- Activity (Jurkat [4]): 1.92%

SMILES: C#C[C@H](O)CCCCCCCCCCC/C=C\CC/C=C\CCCCCCCCCCCCCCCC
- Activity (Jurkat [5]): 78.6%
- Activity (Jurkat [6]): 15.1%
- Activity (Jurkat [7]): inactive
- Activity (Jurkat [8]): Dose-dependent effect

SMILES: CN[C@@H]1C[C@H]2O[C@@](C)([C@@H]1OC)n1c3ccccc3c3c4c(c5c6ccccc6n2c5c31)C(=O)NC4 [STAUROSPORINE]
- Activity (Jurkat [9]): 53.44%
- Activity (Jurkat [10]): 30.37%
- Activity (Jurkat [11]): Active
- Activity (Jurkat [12]): 15.87%

SMILES: COc1cc([C@@H]2c3cc4c(cc3[C@@H](O[C@@H]3O[C@@H]5CO[C@@H](C)O[C@H]5[C@H](O)[C@H]3O)[C@H]3COC(=O)[C@H]23)OCO4)cc(OC)c1O [ETOPOSIDE]
- Activity (Jurkat [1]): 86.42%
- Activity (Jurkat [2]): 0%
- Activity (Jurkat [3]): 0.48%
- Activity (Jurkat [13]): Active
- Activity (Jurkat [4]): 13.1%
